Assay results: ChEMBL document CHEMBL1240441, “New pyrazoline derivatives and their antidepressant activity” (Eur J Med Chem, 2010)

How the values were obtained:
Mus musculus [1] = experiment: Antidepressant-like activity in Swiss albino mouse assessed as effect on swimming time at 100 mg/kg, ip after 24 hrs measured for 5 mins by modified forced swimming test (reference value: 95 +/- 9.7 sec); format: functional; settings: route intraperitoneal
Mus musculus [2] = experiment: Neurotoxicity in Swiss albino mouse assessed as effect on motor coordination at 100 mg/kg, ip by rotarod test; format: toxicity, organism-based; parameters: dose 100 mg/kg, route intraperitoneal; settings: in vivo
Mus musculus [3] = experiment: Antidepressant-like activity in Swiss albino mouse assessed as effect on immobility time at 100 mg/kg, ip after 24 hrs measured for 5 mins by modified forced swimming test (reference value: 102.2 +/- 7.5 sec); format: functional; settings: route intraperitoneal
Mus musculus [4] = experiment: Antidepressant-like activity in Swiss albino mouse assessed as reduction of immobility time at 100 mg/kg, ip measured last 4 mins for 6 mins test by tail suspension test (reference value: 116.4 +/- 4.6 sec); format: functional; settings: route intraperitoneal
Mus musculus [5] = experiment: Antidepressant-like activity in Swiss albino mouse assessed as effect on climbing time at 100 mg/kg, ip after 24 hrs measured for 5 mins by modified forced swimming test (reference value: 56.8 +/- 2.6 sec); format: functional; settings: route intraperitoneal
Mus musculus [6] = experiment: Antidepressant-like activity in Swiss albino mouse assessed as effect on immobility time at 10 mg/kg, ip after 24 hrs measured for 5 mins by modified forced swimming test (reference value: 102.2 +/- 7.5 sec); format: functional; settings: route intraperitoneal
Mus musculus [7] = experiment: Antidepressant-like activity in Swiss albino mouse assessed as effect on swimming time at 10 mg/kg, ip after 24 hrs measured for 5 mins by modified forced swimming test (reference value: 95 +/- 9.7 sec); format: functional; settings: route intraperitoneal
Mus musculus [8] = experiment: Antidepressant-like activity in Swiss albino mouse assessed as effect on climbing time at 10 mg/kg, ip after 24 hrs measured for 5 mins by modified forced swimming test (reference value: 56.8 +/- 2.6 sec); format: functional; settings: route intraperitoneal
Mus musculus [9] = experiment: Antidepressant-like activity in Swiss albino mouse assessed as reduction of immobility time at 10 mg/kg, ip measured last 4 mins for 6 mins test by tail suspension test (reference value: 116.4 +/- 4.6 sec); format: functional; settings: route intraperitoneal

SMILES | Time (Mus musculus [1]) | Activity (Mus musculus [2]) | Time (Mus musculus [3]) | Time (Mus musculus [4]) | Time (Mus musculus [5]) | Time (Mus musculus [6]) | Time (Mus musculus [7]) | Time (Mus musculus [8]) | Time (Mus musculus [9])
Nn1c(CCc2ccc(O)cc2)nnc1SCC(=O)N1N=C(c2cccs2)CC1c1ccc2c(c1)OCO2 (centres undefined) | 144.7 s | Non-toxic | 69.9 s | 96.1 s | 54.1 s | – | – | – | –
Nn1c(CCc2ccc(O)cc2)nnc1SCC(=O)N1N=C(c2cccs2)CC1c1ccccc1 (centres undefined) | 191.8 s | Non-toxic | 33.3 s | 69 s | 43.3 s | – | – | – | –
Nn1c(CCc2ccc(O)cc2)nnc1SCC(=O)N1N=C(c2cccs2)CC1c1ccc(F)cc1 (centres undefined) | 153.3 s | Non-toxic | 52.5 s | 78.8 s | 48.8 s | – | – | – | –
Nn1c(CCc2ccc(O)cc2)nnc1SCC(=O)N1N=C(c2cccs2)CC1c1ccc(Cl)cc1 (centres undefined) | 193.7 s | Non-toxic | 40.5 s | 72.1 s | 45 s | – | – | – | –
Cc1ccc(C2CC(c3cccs3)=NN2C(=O)CSc2nnc(CCc3ccc(O)cc3)n2N)cc1 (centres undefined) | 147.8 s | Non-toxic | 58.4 s | 85.9 s | 54.4 s | – | – | – | –
CN(C)c1ccc(C2CC(c3cccs3)=NN2C(=O)CSc2nnc(CCc3ccc(O)cc3)n2N)cc1 (centres undefined) | 140 s | Non-toxic | 66.2 s | 93.5 s | 53.5 s | – | – | – | –
CNCCC(Oc1ccc(C(F)(F)F)cc1)c1ccccc1 (centres undefined) [FLUOXETINE] | – | – | – | – | – | 67.6 s | 148.5 s | 47.8 s | 90.6 s
